Measured values from US20260201008A1, “SECRETIN-DERIVED GLP1R SELECTIVE AGONISTS” (GUBRA A/S, priority 2023, published 2026).
Numbered stars: 1 amine (or outer) side, 2 acyl side, 3 side chain; on linkers, the order of the positions; unused ones are H or OH. Square brackets hold non-standard residues; d marks the D form. Side chains are listed from the residue outwards. Peptide text beside a SMILES is read from it. * marks the point of attachment. C20 diacid = O=C(O)CCCCCCCCCCCCCCCCCCC(=O)*; γGlu = O=C(O)[C@H](CCC(=O)[*:2])N[*:1]; AEEA = NCCOCCOCC(=O)O; Aib = CC(C)(N)C(=O)O

Tests used:
[1] = Fibril formation of crude library peptides (Thioflavin T); format: physicochemical; set-up: key: average ThT fluorescence emission at 480 nm (ex 450 nm), raw units; details: Physical stability of peptides
Summary of the method: (§1)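 Fibril formation is scored as average ThT fluorescence from duplicate samples monitored for 72 h at 40° C with shaking stress. Turbidity is the absorbance at 600 nm taken before heating. Peptide concentration was 267 μM at pH 4.0 or pH 7.0.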

SCTR = SCTR (Homo sapiens, UniProt P47872); test: hSCTR potency, cAMP accumulation in CHO-K1 cells stably overexpressing hSCTR; format: cell-based; set-up: alternatively Euroscreen ES-712-AF; FAST-0161L; host or cells: CHO-K1; details: cAMP accumulation, CHO-K1 cells overexpressing hSCTR; read-out: hSCTR pEC50 (converted)
Summary of the method: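 CHO-K1/hSCTR cells; DPBS + 0.05% casein + 0.5 mM IBMX; 30 min RT stimulation; cAMP by TR-FRET read at 1 h. Crude peptides: 5-point 10-fold dilutions, n=1. Purified: 11-point 3-fold dilutions, n=2. EC50 via variable-slope fit.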

[2] = Turbidity of crude library peptides (absorbance at 600 nm); format: physicochemical; details: Physical stability of peptides
Summary of the method: as §1

GLP1R = GLP1R (Homo sapiens, UniProt P43220); test: hGLP1R potency, cAMP accumulation in CHO-K1 cells stably overexpressing hGLP1R; format: cell-based; set-up: host or cells: CHO-K1; details: for EC50: cAMP accumulation, CHO-K1 cells overexpressing hGLP1R, read-out: hGLP1R pEC50 (converted); for SCTR EC50/GLP1R EC50 ratio: selectivity for hGLP1R over hSCTR, cAMP accumulation in CHO-K1 cells
Summary of the method: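 TR-FRET cAMP read-out, one hour after reagent addition, following 30 min compound exposure at RT in DPBS/0.05% casein/0.5 mM IBMX. Crude peptides: 5 points, 10-fold steps, n=1. Purified peptides: 11 points, 3-fold steps, n=2. EC50 fitted with a variable-slope sigmoid.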

GLP1R, sequence (P43220 24-463): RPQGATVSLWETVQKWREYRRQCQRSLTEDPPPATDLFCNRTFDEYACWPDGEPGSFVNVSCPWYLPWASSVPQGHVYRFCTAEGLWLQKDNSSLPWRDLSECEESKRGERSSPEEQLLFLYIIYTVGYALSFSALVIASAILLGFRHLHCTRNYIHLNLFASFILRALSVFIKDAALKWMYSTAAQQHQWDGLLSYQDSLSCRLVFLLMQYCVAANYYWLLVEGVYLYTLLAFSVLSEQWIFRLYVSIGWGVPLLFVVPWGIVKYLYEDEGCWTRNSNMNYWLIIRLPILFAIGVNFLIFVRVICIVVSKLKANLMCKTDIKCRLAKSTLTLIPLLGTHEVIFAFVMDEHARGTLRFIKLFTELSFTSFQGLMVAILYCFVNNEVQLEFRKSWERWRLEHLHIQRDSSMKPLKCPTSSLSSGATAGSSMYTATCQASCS
SCTR, sequence (P47872 23-440): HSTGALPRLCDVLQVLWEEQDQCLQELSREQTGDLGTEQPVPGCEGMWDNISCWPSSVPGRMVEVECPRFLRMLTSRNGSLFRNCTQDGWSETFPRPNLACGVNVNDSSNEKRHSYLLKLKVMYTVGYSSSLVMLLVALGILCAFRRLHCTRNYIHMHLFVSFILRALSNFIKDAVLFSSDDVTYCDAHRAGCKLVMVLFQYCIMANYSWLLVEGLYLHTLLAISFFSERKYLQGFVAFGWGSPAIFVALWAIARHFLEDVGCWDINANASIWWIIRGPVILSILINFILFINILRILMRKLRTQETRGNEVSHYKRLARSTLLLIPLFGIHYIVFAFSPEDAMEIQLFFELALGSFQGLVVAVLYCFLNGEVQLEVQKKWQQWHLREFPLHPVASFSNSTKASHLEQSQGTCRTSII

Fibril formation [1] | EC50 (SCTR) | Turbidity (pH 7) [2] | EC50 (GLP1R) | SCTR EC50/GLP1R EC50 ratio (GLP1R) | SMILES
3061 | 126 nM | 0.08 | 0.0251 nM | 5170 | CC(C)C[C@H](NC(=O)[C@H](Cc1ccccc1)NC(=O)[C@H](CCCNC(=N)N)NC(=O)[C@H](CCC(N)=O)NC(=O)[C@H](CC(C)C)NC(=O)C(C)(C)NC(=O)[C@H](C)NC(=O)[C@H](CCC(=O)O)NC(=O)[C@H](CCC(=O)O)NC(=O)[C@H](CCCCNC(=O)COCCOCCNC(=O)COCCOCCNC(=O)CC[C@H](NC(=O)CCCCCCCCCCCCCCCCCCC(=O)O)C(=O)O)NC(=O)[C@H](CC(C)C)NC(=O)[C@H](Cc1ccc(O)cc1)NC(=O)[C@H](CO)NC(=O)[C@@H](NC(=O)[C@H](CC(=O)O)NC(=O)[C@H](CO)NC(=O)[C@@H](NC(=O)[C@H](Cc1ccccc1)NC(=O)[C@@H](NC(=O)CNC(=O)[C@H](CCC(=O)O)NC(=O)C(C)(C)NC(=O)[C@@H](N)Cc1c[nH]cn1)[C@@H](C)O)[C@@H](C)O)C(C)C)C(=O)N[C@@H](CCC(=O)O)C(=O)N[C@@H](CCC(=O)O)C(=O)N[C@@H](CC(C)C)C(=O)N[C@H](C(N)=O)C(C)C [compound 151] (H-H[Aib]EGTFTSDVSYLK([AEEA-AEEA-γGlu-C20 diacid])EEA[Aib]LQRFLEELV-NH2)
3105 | 3980 nM | 0.08 | 0.0126 nM | 367578 | CC(C)C[C@H](NC(=O)[C@H](Cc1ccccc1)NC(=O)[C@H](CCCNC(=N)N)NC(=O)[C@H](CCC(N)=O)NC(=O)C(C)(C)NC(=O)C(C)(C)NC(=O)[C@H](C)NC(=O)[C@H](CCC(=O)O)NC(=O)[C@H](CCC(=O)O)NC(=O)[C@H](CCCCNC(=O)COCCOCCNC(=O)COCCOCCNC(=O)CC[C@H](NC(=O)CCCCCCCCCCCCCCCCCCC(=O)O)C(=O)O)NC(=O)[C@H](CC(C)C)NC(=O)[C@H](Cc1ccc(O)cc1)NC(=O)[C@H](CO)NC(=O)[C@@H](NC(=O)[C@H](CC(=O)O)NC(=O)[C@H](CO)NC(=O)[C@@H](NC(=O)[C@H](Cc1ccccc1)NC(=O)[C@@H](NC(=O)CNC(=O)[C@H](CCC(=O)O)NC(=O)C(C)(C)NC(=O)[C@@H](N)Cc1c[nH]cn1)[C@@H](C)O)[C@@H](C)O)C(C)C)C(=O)N[C@@H](CCC(=O)O)C(=O)N[C@@H](Cc1c[nH]cn1)C(=O)N[C@@H](CC(C)C)C(=O)N[C@H](C(N)=O)C(C)C [compound 152] (H-H[Aib]EGTFTSDVSYLK([AEEA-AEEA-γGlu-C20 diacid])EEA[Aib][Aib]QRFLEHLV-NH2)
3897 | 316 nM | 0.08 | 0.02 nM | 16095 | CC(C)C[C@H](NC(=O)[C@H](Cc1ccccc1)NC(=O)[C@H](CCCNC(=N)N)NC(=O)[C@H](CCC(N)=O)NC(=O)[C@H](CC(C)C)NC(=O)C(C)(C)NC(=O)[C@H](C)NC(=O)[C@H](CCC(=O)O)NC(=O)[C@H](CCC(=O)O)NC(=O)[C@H](CCCCNC(=O)COCCOCCNC(=O)COCCOCCNC(=O)CC[C@H](NC(=O)CCCCCCCCCCCCCCCCCCC(=O)O)C(=O)O)NC(=O)[C@H](CC(C)C)NC(=O)[C@H](CC(=O)O)NC(=O)[C@H](CO)NC(=O)[C@@H](NC(=O)[C@H](CC(=O)O)NC(=O)[C@H](CO)NC(=O)[C@@H](NC(=O)[C@H](Cc1ccccc1)NC(=O)[C@@H](NC(=O)CNC(=O)[C@H](CCC(=O)O)NC(=O)C(C)(C)NC(=O)[C@@H](N)Cc1c[nH]cn1)[C@@H](C)O)[C@@H](C)O)C(C)C)C(=O)N[C@@H](CCC(=O)O)C(=O)N[C@@H](Cc1c[nH]cn1)C(=O)N[C@@H](CC(C)C)C(=O)N[C@H](C(N)=O)C(C)C [compound 153] (H-H[Aib]EGTFTSDVSDLK([AEEA-AEEA-γGlu-C20 diacid])EEA[Aib]LQRFLEHLV-NH2)
3107 | 3980 nM | 0.08 | 0.0158 nM | 203892 | CC(C)C[C@H](NC(=O)[C@H](Cc1ccccc1)NC(=O)[C@H](CCCNC(=N)N)NC(=O)[C@H](CCC(N)=O)NC(=O)CNC(=O)C(C)(C)NC(=O)[C@H](C)NC(=O)[C@H](CCC(=O)O)NC(=O)[C@H](CCC(=O)O)NC(=O)[C@H](CCCCNC(=O)COCCOCCNC(=O)COCCOCCNC(=O)CC[C@H](NC(=O)CCCCCCCCCCCCCCCCCCC(=O)O)C(=O)O)NC(=O)[C@H](CC(C)C)NC(=O)[C@H](Cc1ccc(O)cc1)NC(=O)[C@H](CO)NC(=O)[C@@H](NC(=O)[C@H](CC(=O)O)NC(=O)[C@H](CO)NC(=O)[C@@H](NC(=O)[C@H](Cc1ccccc1)NC(=O)[C@@H](NC(=O)CNC(=O)[C@H](CCC(=O)O)NC(=O)C(C)(C)NC(=O)[C@@H](N)Cc1c[nH]cn1)[C@@H](C)O)[C@@H](C)O)C(C)C)C(=O)N[C@@H](CCC(=O)O)C(=O)N[C@@H](Cc1c[nH]cn1)C(=O)N[C@@H](CC(C)C)C(=O)N[C@H](C(N)=O)C(C)C [compound 154] (H-H[Aib]EGTFTSDVSYLK([AEEA-AEEA-γGlu-C20 diacid])EEA[Aib]GQRFLEHLV-NH2)
4368 | 25100 nM | 0.08 | 0.0126 nM | 1853532 | CC(C)C[C@H](NC(=O)[C@H](Cc1ccccc1)NC(=O)[C@H](CCCNC(=N)N)NC(=O)[C@H](CCC(N)=O)NC(=O)[C@H](CC(C)C)NC(=O)C(C)(C)NC(=O)[C@H](C)NC(=O)[C@H](CCC(=O)O)NC(=O)[C@H](CCC(=O)O)NC(=O)[C@H](CCCCNC(=O)COCCOCCNC(=O)COCCOCCNC(=O)CC[C@H](NC(=O)CCCCCCCCCCCCCCCCCCC(=O)O)C(=O)O)NC(=O)[C@H](CC(C)C)NC(=O)[C@H](Cc1ccc(O)cc1)NC(=O)[C@H](CO)NC(=O)[C@@H](NC(=O)[C@H](CC(=O)O)NC(=O)[C@H](CO)NC(=O)[C@@H](NC(=O)[C@H](Cc1ccccc1)NC(=O)[C@@H](NC(=O)CNC(=O)[C@@H](NC(=O)C(C)(C)NC(=O)[C@@H](N)Cc1c[nH]cn1)C(C)C)[C@@H](C)O)[C@@H](C)O)C(C)C)C(=O)N[C@@H](CCC(=O)O)C(=O)N[C@@H](Cc1c[nH]cn1)C(=O)N[C@@H](CC(C)C)C(=O)N[C@H](C(N)=O)C(C)C [compound 155] (H-H[Aib]VGTFTSDVSYLK([AEEA-AEEA-γGlu-C20 diacid])EEA[Aib]LQRFLEHLV-NH2)
3415 | 316 nM | 0.09 | 0.00251 nM | 121171 | CC(C)C[C@H](NC(=O)[C@H](Cc1ccccc1)NC(=O)[C@H](CCCNC(=N)N)NC(=O)[C@H](CCC(N)=O)NC(=O)[C@H](CCC(N)=O)NC(=O)C(C)(C)NC(=O)[C@H](C)NC(=O)[C@H](CCC(=O)O)NC(=O)[C@H](CCC(=O)O)NC(=O)[C@H](CCCCNC(=O)COCCOCCNC(=O)COCCOCCNC(=O)CC[C@H](NC(=O)CCCCCCCCCCCCCCCCCCC(=O)O)C(=O)O)NC(=O)[C@H](CC(C)C)NC(=O)[C@H](Cc1ccc(O)cc1)NC(=O)[C@H](CO)NC(=O)[C@@H](NC(=O)[C@H](CC(=O)O)NC(=O)[C@H](CO)NC(=O)[C@@H](NC(=O)[C@H](Cc1ccccc1)NC(=O)[C@@H](NC(=O)CNC(=O)[C@H](CCC(=O)O)NC(=O)C(C)(C)NC(=O)[C@@H](N)Cc1c[nH]cn1)[C@@H](C)O)[C@@H](C)O)C(C)C)C(=O)N[C@@H](CCC(=O)O)C(=O)N[C@@H](Cc1c[nH]cn1)C(=O)N[C@@H](CC(C)C)C(=O)N[C@H](C(N)=O)C(C)C [compound 157] (H-H[Aib]EGTFTSDVSYLK([AEEA-AEEA-γGlu-C20 diacid])EEA[Aib]QQRFLEHLV-NH2)
4465 | 1580 nM | 0.08 | 0.0398 nM | 41049 | CC(C)C[C@H](NC(=O)[C@H](Cc1ccccc1)NC(=O)[C@H](CCCNC(=N)N)NC(=O)[C@H](CCC(N)=O)NC(=O)[C@H](CC(C)C)NC(=O)C(C)(C)NC(=O)[C@H](C)NC(=O)[C@H](CCC(=O)O)NC(=O)[C@H](CCC(=O)O)NC(=O)C(C)(C)NC(=O)[C@H](CC(C)C)NC(=O)[C@H](Cc1ccc(O)cc1)NC(=O)[C@H](CO)NC(=O)[C@@H](NC(=O)[C@H](CC(=O)O)NC(=O)[C@H](CO)NC(=O)[C@@H](NC(=O)[C@H](Cc1ccccc1)NC(=O)[C@@H](NC(=O)CNC(=O)[C@H](CCC(=O)O)NC(=O)C(C)(C)NC(=O)[C@@H](N)Cc1c[nH]cn1)[C@@H](C)O)[C@@H](C)O)C(C)C)C(=O)N[C@@H](CCC(=O)O)C(=O)N[C@@H](CCCCNC(=O)COCCOCCNC(=O)COCCOCCNC(=O)CC[C@H](NC(=O)CCCCCCCCCCCCCCCCCCC(=O)O)C(=O)O)C(=O)N[C@@H](CC(C)C)C(=O)N[C@H](C(N)=O)C(C)C [compound 158] (H-H[Aib]EGTFTSDVSYL[Aib]EEA[Aib]LQRFLEK([AEEA-AEEA-γGlu-C20 diacid])LV-NH2)
